The text below walks through data of ChEMBL document CHEMBL3797068, “eCF309: a potent, selective and cell-permeable mTOR inhibitor” (Medchemcomm, 2016).

A word on the EC50: it is the concentration needed to bring the measured effect to its halfway point. Higher therefore signals lower potency in that assay. For orientation: IC50 means the concentration at which inhibition is half-maximal. As a reminder, the inhibition is the share of the control response that was lost under treatment.

For assay [1], the system named is MCF7. As to the kind of experiment: Cytotoxicity against human MCF7 cells after 5 days by Presto blue reagent-based fluorescence analysis. Particulars: MCF7, 120 h. Type of assay: functional, cell-based.
Assay [2] concerns the target Tyrosine-protein kinase ABL1 (Homo sapiens, UniProt P00519). As to the kind of experiment: Inhibition of human ABL using (poly [Glu, Tyr] 4:1) as substrate assessed as incorporation of 33P in substrate by [gamma33P] ATP-based kinase assay.
Assay [3] has as its system MDA-MB-231. As to the kind of experiment: Cell cycle arrest in human MDA-MB-231 cells assessed as increase in G0/G1 population after 24 hrs by Hoechst 33342 staining-based fluorescence analysis. In kind it is functional.
Assay [4] has as its target Serine/threonine-protein kinase mTOR (Homo sapiens, UniProt P42345). As to the kind of experiment: Inhibition of human mTOR at 10 uM by kinome profiling method.
Assay [5] has as its target T1, mTORC1 (Homo sapiens) (UniProt P42345+Q8N122+Q9BVC4). Description: Inhibition of mTORC1 in human MCF7 cells assessed as reduction in phosphorylated P70S6K preincubated for 30 mins followed by serum stimulation for 1 hr by Western blot analysis. Type of assay: cell-based. A general note: Immunoblotting shows a protein as a band on a membrane.
Assay [6] concerns MDA-MB-231. As to the kind of experiment: Cytotoxicity against human MDA-MB-231 cells after 5 days by Presto blue reagent-based spectrofluorometric analysis. Type of assay: functional, cell-based. Conditions: MDA-MB-231, 120 h.
The target of assay [7] is T2, Phosphatidylinositol 4,5-bisphosphate 3-kinase catalytic subunit delta isoform (Homo sapiens, UniProt O00329).
T2 sequence (O00329 whole entry): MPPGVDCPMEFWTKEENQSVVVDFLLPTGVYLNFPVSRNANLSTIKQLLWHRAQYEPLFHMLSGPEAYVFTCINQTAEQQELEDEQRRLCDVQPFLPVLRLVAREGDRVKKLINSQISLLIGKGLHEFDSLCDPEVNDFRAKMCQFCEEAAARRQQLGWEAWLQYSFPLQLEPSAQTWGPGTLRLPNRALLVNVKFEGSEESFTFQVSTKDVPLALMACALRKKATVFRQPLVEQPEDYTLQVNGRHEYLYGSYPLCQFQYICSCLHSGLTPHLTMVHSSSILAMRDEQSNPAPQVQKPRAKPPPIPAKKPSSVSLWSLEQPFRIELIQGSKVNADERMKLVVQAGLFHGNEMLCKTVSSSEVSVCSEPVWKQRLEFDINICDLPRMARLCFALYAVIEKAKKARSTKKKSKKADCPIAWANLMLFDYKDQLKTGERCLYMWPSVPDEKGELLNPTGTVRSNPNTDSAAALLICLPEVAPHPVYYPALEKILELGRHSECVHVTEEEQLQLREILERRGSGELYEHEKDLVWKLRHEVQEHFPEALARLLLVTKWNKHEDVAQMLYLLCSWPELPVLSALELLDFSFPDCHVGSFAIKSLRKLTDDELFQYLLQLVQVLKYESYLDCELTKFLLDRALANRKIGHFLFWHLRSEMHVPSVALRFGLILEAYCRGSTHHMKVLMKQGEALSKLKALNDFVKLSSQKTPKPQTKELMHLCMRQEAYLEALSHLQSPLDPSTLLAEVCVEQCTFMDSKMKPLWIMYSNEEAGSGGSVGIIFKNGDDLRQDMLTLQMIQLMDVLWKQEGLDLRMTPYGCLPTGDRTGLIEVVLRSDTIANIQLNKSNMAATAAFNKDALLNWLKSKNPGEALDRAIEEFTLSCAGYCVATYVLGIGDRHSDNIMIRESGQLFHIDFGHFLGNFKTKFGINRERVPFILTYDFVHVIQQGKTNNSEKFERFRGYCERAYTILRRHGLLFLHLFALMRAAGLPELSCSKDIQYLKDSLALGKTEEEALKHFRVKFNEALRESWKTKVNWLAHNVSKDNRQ
As to the kind of experiment: Inhibition of PI3Kdelta (unknown origin) using (poly [Glu, Tyr] 4:1) as substrate assessed as incorporation of 33P in substrate by [gamma33P] ATP-based kinase assay.

The target in assay [8] is T1, mTORC1 (Homo sapiens). Description: Inhibition of mTORC1 in human MCF7 cells assessed as reduction in phosphorylated S6 at 30 nM preincubated for 30 mins followed by serum stimulation for 1 hr by Western blot analysis. Type of assay: cell-based.
Assay [9] has as its target T1, mTORC1 (Homo sapiens). Description: Inhibition of mTORC1 in human MCF7 cells assessed as reduction in phosphorylated S6 preincubated for 30 mins followed by serum stimulation for 1 hr by Western blot analysis. In kind it is cell-based.
Assay [10] deals with T3, Epithelial discoidin domain-containing receptor 1 (Homo sapiens, UniProt Q08345). Description: Inhibition of human DDR1 at 10 uM by kinome profiling method.
T3 sequence (Q08345 whole entry, the tested form may be a part): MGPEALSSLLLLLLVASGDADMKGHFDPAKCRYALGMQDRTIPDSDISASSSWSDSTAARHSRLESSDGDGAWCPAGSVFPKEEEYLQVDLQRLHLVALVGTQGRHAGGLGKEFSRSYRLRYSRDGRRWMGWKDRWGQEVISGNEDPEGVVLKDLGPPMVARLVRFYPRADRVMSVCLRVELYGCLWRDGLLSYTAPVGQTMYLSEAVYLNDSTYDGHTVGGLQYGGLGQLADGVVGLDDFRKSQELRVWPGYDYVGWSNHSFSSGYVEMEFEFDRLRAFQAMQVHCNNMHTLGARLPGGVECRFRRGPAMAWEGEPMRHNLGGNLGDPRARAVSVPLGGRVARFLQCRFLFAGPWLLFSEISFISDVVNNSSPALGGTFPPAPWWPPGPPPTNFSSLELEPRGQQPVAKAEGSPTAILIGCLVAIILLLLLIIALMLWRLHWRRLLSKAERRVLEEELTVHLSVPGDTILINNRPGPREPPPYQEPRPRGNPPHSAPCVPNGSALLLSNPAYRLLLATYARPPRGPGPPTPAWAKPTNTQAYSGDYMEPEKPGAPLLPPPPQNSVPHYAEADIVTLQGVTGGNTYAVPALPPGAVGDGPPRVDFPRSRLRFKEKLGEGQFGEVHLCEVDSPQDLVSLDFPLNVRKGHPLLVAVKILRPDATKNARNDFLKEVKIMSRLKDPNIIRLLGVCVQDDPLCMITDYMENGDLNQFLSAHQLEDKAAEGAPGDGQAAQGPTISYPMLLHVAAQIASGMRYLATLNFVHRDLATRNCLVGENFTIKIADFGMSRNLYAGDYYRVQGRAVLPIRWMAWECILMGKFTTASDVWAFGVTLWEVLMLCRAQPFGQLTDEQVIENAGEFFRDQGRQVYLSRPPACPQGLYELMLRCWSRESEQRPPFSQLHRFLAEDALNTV
The target of assay [11] is T1, mTORC1 (Homo sapiens). As to the kind of experiment: Inhibition of mTORC1 in human MCF7 cells assessed as reduction in phosphorylated P70S6K at 30 nM preincubated for 30 mins followed by serum stimulation for 1 hr by Western blot analysis. Type of assay: cell-based.
The target in assay [12] is Tyrosine-protein kinase Blk (Homo sapiens, UniProt P51451). Description: Inhibition of human BLK using (poly [Glu, Tyr] 4:1) as substrate assessed as incorporation of 33P in substrate by [gamma33P] ATP-based kinase assay.
Sequence of Tyrosine-protein kinase Blk (P51451 whole entry): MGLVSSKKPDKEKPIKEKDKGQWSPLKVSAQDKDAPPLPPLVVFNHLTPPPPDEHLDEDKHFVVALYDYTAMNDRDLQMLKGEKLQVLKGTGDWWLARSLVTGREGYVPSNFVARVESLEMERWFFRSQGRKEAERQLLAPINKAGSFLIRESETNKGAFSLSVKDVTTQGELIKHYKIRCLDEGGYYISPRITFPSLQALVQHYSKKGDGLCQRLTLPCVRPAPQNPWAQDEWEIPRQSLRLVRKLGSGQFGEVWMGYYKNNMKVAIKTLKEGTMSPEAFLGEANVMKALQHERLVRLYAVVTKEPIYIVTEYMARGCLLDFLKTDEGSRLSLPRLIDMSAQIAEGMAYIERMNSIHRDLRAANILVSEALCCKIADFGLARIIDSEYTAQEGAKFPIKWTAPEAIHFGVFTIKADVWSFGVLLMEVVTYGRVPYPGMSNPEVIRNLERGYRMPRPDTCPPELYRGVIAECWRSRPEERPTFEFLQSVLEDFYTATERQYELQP
Assay [13] can be described thus: Cytotoxicity against human PC3 cells after 5 days by Presto blue reagent-based spectrofluorometric analysis. Type of assay: functional, cell-based. Conditions: PC-3, 120 h.
The target in assay [14] is T3, Epithelial discoidin domain-containing receptor 1. As to the kind of experiment: Inhibition of human DDR1 using (poly [Glu, Tyr] 4:1) as substrate assessed as incorporation of 33P in substrate by [gamma33P] ATP-based kinase assay.
The target of assay [15] is T4, Phosphatidylinositol 4,5-bisphosphate 3-kinase catalytic subunit gamma isoform (Homo sapiens, UniProt P48736). As to the kind of experiment: Inhibition of PI3Kgamma (unknown origin) using PIP2 as substrate by HTRF assay.
The target in assay [16] is Proto-oncogene tyrosine-protein kinase receptor Ret (Homo sapiens, UniProt P07949). As to the kind of experiment: Inhibition of human RET using (poly [Glu, Tyr] 4:1) as substrate assessed as incorporation of 33P in substrate by [gamma33P] ATP-based kinase assay.
Assay [17] addresses Tyrosine-protein kinase Yes (Homo sapiens, UniProt P07947). As to the kind of experiment: Inhibition of human YES using (poly [Glu, Tyr] 4:1) as substrate assessed as incorporation of 33P in substrate by [gamma33P] ATP-based kinase assay.
Assay [18] deals with Phosphatidylinositol 4,5-bisphosphate 3-kinase catalytic subunit alpha isoform (Homo sapiens, UniProt P42336). Description: Inhibition of human PI3Kalpha at 10 uM by kinome profiling method.
Assay [19] addresses T4, Phosphatidylinositol 4,5-bisphosphate 3-kinase catalytic subunit gamma isoform. As to the kind of experiment: Inhibition of human PI3Kgamma at 10 uM by kinome profiling method.
Assay [20] concerns MCF7. As to the kind of experiment: Inhibition of mTORC2 in human MCF7 cells assessed as reduction in phosphorylated AKT level at 30 nM preincubated for 30 mins followed by serum stimulation for 1 hr by Western blot analysis. In kind it is cell-based.
The target of assay [21] is Tyrosine-protein kinase Fyn (Homo sapiens, UniProt P06241). As to the kind of experiment: Inhibition of human FYN using (poly [Glu, Tyr] 4:1) as substrate assessed as incorporation of 33P in substrate by [gamma33P] ATP-based kinase assay.
The target of assay [22] is Platelet-derived growth factor receptor alpha (Homo sapiens, UniProt P16234). As to the kind of experiment: Inhibition of human PDGFRalpha using (poly [Glu, Tyr] 4:1) as substrate assessed as incorporation of 33P in substrate by [gamma33P] ATP-based kinase assay.
Sequence of Platelet-derived growth factor receptor alpha (P16234 whole entry): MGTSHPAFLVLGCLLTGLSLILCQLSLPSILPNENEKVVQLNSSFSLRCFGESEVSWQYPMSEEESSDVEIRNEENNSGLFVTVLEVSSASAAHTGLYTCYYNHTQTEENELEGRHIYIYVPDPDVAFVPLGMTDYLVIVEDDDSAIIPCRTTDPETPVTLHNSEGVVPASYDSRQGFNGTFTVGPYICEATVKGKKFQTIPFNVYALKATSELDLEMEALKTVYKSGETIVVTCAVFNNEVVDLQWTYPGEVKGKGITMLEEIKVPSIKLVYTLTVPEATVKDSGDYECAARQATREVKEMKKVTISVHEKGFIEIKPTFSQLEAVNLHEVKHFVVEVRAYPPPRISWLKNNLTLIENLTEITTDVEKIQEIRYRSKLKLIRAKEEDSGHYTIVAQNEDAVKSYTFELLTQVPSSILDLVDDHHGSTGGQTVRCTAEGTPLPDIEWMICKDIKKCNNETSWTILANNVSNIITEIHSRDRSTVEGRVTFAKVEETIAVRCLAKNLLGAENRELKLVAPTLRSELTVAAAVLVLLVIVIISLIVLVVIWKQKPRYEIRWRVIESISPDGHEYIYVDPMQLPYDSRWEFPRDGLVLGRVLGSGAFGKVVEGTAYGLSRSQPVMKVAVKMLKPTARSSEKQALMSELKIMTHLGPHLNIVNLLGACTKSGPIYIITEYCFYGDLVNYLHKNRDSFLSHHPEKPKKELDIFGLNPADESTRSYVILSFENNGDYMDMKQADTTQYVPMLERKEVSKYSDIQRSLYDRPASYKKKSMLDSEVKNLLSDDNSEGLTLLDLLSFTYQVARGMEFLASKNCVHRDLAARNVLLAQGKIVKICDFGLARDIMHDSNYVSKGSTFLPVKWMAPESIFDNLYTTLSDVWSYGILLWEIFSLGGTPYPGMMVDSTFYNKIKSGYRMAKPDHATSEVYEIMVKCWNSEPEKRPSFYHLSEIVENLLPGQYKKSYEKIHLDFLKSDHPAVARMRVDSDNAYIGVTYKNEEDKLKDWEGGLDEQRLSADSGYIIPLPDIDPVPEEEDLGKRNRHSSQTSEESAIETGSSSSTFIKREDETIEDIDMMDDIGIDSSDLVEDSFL
Assay [23] relates to MCF7. As to the kind of experiment: Inhibition of mTORC2 in human MCF7 cells assessed as reduction in phosphorylated AKT level preincubated for 30 mins followed by serum stimulation for 1 hr by Western blot analysis. Type of assay: cell-based.

The source made the active and inactive calls. No cut-off for these calls is given here. Some results are limits rather than exact numbers.

T1 sequence (Q8N122 whole entry, looked up, other chains not shown): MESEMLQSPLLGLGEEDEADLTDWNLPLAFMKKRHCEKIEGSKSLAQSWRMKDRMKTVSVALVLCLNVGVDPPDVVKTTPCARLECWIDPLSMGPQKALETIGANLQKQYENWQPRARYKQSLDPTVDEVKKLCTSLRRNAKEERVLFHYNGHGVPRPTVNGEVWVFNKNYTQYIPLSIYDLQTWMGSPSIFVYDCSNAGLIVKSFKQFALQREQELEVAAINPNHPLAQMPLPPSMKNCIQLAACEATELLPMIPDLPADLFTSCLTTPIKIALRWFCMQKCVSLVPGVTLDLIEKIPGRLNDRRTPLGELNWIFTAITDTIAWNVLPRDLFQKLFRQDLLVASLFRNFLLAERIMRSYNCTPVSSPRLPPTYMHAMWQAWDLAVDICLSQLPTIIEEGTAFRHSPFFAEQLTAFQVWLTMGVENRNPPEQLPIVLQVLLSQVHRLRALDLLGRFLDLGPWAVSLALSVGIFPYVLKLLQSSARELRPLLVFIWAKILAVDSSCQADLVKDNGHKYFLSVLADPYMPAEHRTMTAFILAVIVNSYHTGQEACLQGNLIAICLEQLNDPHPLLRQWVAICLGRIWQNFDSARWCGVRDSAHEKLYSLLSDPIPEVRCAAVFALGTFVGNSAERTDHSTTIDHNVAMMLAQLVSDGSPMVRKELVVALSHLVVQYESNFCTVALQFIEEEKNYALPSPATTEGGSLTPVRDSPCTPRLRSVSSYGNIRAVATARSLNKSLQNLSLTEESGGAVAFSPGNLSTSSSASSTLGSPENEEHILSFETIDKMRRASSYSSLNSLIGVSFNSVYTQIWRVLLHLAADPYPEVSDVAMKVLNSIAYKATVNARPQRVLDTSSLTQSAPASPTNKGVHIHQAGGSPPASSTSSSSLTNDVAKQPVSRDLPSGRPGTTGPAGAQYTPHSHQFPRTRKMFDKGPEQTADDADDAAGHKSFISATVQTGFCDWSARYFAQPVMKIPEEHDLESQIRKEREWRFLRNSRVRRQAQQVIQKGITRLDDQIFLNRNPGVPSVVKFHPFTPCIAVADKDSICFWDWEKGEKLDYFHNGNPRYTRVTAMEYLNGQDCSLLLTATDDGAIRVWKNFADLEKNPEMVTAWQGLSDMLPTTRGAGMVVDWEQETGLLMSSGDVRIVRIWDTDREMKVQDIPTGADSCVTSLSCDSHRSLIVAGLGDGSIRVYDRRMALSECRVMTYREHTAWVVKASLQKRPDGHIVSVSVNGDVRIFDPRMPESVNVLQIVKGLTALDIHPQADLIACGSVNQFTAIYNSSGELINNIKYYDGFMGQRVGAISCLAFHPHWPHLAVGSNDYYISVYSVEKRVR
T1 sequence (Q9BVC4 whole entry, looked up, other chains not shown): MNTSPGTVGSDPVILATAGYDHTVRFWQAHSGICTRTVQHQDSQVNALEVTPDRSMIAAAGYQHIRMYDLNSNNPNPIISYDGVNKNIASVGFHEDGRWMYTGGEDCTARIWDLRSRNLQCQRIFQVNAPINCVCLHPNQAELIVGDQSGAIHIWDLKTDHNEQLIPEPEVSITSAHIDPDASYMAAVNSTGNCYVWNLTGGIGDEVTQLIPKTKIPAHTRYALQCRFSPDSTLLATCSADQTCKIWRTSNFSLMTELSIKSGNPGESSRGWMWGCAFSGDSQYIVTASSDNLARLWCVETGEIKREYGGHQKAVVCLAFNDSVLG
Sequence of Tyrosine-protein kinase Yes (P07947 whole entry, canonical isoform): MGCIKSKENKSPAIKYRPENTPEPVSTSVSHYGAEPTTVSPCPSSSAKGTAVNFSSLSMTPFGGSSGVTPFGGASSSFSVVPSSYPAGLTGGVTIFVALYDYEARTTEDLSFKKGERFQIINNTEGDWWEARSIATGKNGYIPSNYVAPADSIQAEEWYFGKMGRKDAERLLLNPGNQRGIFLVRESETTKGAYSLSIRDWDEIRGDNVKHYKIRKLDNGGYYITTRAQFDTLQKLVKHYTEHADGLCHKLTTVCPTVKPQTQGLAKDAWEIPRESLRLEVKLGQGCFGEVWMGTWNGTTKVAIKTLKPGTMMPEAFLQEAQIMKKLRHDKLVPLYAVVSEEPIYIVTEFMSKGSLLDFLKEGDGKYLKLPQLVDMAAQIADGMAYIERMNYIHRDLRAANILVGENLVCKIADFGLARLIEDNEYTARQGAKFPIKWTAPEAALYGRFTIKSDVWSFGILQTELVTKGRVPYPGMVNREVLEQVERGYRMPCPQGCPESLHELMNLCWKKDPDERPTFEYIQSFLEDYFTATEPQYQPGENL

With `CCOC(Cn1nc(-c2ccc3oc(N)nc3c2)c2c(N)ncnc21)OCC`, the concentration for a half-maximal effect (EC50) in assay [1] is 8 nM; in assay [6], 72 nM; in assay [13], 37 nM. Besides, the half-inhibitory concentration (IC50) is more than 100 µM in assay [2]; 1840 nM in assay [7]; more than 100 µM in [12]; 2110 nM in assay [14]; 1340 nM in [15]; more than 100 µM in [16]. The IC50 in [17], in assay [21] and in assay [22] was more than 100 µM in each case. Also, in assay [3], the result was Active. Further, the inhibition in [4] was 99%; in assay [5], “Dose-dependent effect”; in [8] it was 100%; in assay [9], “Dose-dependent effect”; in assay [10], 77%; in assay [11] it was 100%. Further, the inhibition is 65% in assay [18], 85% in [19], 100% in [20] and “Dose-dependent effect” in [23].
